Experimental data taken from ChEMBL document CHEMBL3431459, “Roche carnitine palmitoyltransferase modulator screening data (supplementary data associated with the publication CHEMBL2216752)”.
In brackets after ≈: the same amount, converted by molar mass.

Experiments:
[1] = SUPPLEMENTARY: PAMPA permeability assay; assay type: physicochemical; details: read-out: Permeability
[2] = SUPPLEMENTARY: Lyophilisation Solubility Assay (LYSA); assay type: physicochemical; details: read-out: Kinetic_solubility
[3] = target: T1, Carnitine O-palmitoyltransferase 2, mitochondrial (Homo sapiens, UniProt P23786); assay: (§1) SUPPLEMENTARY: Inhibition of Carnitine palmitoyltransferase 2
T1 sequence (P23786 whole entry): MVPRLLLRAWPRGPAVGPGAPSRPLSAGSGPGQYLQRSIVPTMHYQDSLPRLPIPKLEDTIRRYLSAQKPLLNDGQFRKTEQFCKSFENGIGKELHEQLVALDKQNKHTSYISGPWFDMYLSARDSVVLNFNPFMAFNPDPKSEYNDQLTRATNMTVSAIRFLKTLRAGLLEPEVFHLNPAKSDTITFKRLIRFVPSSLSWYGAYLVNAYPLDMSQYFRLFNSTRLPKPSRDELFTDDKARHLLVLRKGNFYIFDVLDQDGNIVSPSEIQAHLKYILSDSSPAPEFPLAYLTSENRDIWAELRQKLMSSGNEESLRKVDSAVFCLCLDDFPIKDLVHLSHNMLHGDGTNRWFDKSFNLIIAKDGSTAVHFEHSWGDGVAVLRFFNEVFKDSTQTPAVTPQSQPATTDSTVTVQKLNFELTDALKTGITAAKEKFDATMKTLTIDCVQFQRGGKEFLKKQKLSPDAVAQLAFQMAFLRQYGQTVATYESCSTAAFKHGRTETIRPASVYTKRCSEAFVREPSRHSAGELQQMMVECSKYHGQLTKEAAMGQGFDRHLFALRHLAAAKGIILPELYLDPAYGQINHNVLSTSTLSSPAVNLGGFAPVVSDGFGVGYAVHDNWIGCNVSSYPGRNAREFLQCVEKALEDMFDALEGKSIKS

[4] = target: T2, Carnitine O-palmitoyltransferase 2, mitochondrial (Rattus norvegicus, UniProt P18886); assay: as §1
T2 sequence (P18886 whole entry): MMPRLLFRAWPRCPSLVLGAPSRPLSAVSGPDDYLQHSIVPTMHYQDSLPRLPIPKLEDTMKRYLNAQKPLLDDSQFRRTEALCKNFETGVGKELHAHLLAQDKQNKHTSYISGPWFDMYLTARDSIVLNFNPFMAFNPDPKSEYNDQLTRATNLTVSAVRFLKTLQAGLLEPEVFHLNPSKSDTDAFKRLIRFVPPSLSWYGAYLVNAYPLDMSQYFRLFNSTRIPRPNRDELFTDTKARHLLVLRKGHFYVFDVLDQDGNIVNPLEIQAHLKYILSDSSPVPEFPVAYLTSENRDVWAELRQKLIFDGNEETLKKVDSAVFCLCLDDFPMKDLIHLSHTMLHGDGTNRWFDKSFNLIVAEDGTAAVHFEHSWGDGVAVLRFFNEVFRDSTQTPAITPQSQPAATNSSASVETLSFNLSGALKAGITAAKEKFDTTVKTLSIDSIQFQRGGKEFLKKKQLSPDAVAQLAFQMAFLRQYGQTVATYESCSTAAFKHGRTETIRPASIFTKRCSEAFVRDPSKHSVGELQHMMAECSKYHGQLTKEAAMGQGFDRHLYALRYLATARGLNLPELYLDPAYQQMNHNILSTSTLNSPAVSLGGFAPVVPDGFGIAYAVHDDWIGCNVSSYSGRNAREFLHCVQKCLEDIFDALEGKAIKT

[5] = SUPPLEMENTARY: Lipophilicity (log D) Determination by high-throughput shake-flask; assay type: physicochemical; details: octanol/water
[6] = target: T3, Carnitine O-palmitoyltransferase 1, muscle isoform (Homo sapiens, UniProt Q92523); assay: SUPPLEMENTARY: Inhibition of Carnitine palmitoyltransferase 1, muscle isoform; design: species or system Muscle tissue
T3 sequence (Q92523 whole entry): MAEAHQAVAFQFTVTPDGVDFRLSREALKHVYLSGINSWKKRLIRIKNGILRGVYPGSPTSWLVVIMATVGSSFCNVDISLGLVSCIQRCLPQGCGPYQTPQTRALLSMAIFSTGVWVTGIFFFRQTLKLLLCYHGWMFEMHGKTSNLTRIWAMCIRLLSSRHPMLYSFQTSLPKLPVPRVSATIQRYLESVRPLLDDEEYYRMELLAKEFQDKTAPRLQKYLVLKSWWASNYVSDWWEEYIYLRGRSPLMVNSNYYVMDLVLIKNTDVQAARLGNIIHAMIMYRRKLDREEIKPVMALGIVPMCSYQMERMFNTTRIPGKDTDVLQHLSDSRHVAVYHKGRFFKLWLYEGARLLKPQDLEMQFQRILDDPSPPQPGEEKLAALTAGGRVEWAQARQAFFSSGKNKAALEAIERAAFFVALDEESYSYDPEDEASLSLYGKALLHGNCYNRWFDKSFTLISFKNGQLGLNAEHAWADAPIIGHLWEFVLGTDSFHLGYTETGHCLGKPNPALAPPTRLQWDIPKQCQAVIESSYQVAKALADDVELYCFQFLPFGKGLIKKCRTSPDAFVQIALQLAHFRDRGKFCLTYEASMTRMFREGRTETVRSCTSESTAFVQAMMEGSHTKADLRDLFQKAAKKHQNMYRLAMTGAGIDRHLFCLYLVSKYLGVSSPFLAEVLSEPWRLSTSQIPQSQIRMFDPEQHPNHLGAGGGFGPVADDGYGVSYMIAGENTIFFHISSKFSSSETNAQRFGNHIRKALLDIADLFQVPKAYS

[7] = target: T4, Carnitine O-palmitoyltransferase 1, liver isoform (Homo sapiens, UniProt P50416); assay: (§2) SUPPLEMENTARY: Inhibition of Carnitine palmitoyltransferase 1, liver isoform
T4 sequence (P50416 whole entry): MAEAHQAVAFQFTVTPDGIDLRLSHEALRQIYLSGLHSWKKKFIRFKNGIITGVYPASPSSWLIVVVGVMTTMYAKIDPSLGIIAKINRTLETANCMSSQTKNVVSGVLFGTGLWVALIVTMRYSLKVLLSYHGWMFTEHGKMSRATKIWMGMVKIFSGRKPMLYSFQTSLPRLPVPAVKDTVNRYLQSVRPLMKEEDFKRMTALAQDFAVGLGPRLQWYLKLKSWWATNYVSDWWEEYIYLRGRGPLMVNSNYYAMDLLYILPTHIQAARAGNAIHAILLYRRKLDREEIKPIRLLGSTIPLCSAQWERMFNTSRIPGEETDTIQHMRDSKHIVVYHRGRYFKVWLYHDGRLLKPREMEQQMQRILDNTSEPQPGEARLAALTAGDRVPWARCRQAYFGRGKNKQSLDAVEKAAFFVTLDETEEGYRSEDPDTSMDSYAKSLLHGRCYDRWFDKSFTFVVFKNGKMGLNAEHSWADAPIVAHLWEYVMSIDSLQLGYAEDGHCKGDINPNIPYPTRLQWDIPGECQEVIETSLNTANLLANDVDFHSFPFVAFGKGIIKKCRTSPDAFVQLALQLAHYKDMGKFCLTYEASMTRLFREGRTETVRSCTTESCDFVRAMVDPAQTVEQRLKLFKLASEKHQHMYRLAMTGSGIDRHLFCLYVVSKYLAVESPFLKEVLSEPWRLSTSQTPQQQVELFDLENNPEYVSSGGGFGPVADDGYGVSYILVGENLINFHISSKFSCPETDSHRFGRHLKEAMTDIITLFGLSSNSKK

[8] = target: T5, Carnitine O-palmitoyltransferase 1, liver isoform (Rattus norvegicus, UniProt P32198); assay: as §2
T5 sequence (P32198 whole entry): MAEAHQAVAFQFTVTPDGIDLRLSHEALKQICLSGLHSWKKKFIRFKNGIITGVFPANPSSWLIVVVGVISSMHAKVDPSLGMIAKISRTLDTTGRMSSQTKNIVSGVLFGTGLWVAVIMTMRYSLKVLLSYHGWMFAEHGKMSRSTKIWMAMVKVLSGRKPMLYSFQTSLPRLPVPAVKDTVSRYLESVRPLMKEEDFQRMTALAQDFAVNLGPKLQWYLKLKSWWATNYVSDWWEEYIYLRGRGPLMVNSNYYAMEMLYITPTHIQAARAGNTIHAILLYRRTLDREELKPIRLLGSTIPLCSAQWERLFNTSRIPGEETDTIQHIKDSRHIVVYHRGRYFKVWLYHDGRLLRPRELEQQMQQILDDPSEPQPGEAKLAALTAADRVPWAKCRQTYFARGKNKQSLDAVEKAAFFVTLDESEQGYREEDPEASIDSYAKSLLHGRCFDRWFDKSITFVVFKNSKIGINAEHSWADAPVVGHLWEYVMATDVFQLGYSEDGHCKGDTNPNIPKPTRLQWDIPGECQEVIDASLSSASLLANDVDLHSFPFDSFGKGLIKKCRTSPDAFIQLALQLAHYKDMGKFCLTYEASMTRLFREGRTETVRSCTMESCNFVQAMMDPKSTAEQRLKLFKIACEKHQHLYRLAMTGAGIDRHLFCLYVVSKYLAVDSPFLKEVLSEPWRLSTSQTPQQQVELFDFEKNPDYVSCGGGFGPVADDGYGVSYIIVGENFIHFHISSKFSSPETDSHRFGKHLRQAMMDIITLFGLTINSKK

| SMILES | Papp [1] [×10⁻⁶ cm/s] | solubility kinetic [2] [µg/mL] | IC50 [3] [nM] | IC50 [4] [nM] | logD [5] | IC50 [6] [nM] | IC50 [7] [nM] | IC50 [8] [nM] |
| --- | --- | --- | --- | --- | --- | --- | --- | --- |
| O=C(Nc1ccc(-c2nnn[nH]2)cc1)c1nn(Cc2ccc(OC(F)F)cc2)c2ccc(F)cc12 | 0.46 | 1 (≈ 2.09 µM) | > 100000 | > 100000 | > 3 | 26800 | 210 | 2870 |
| CC(=O)Nc1cccc(-c2n[nH]c([C@H]3CCCCN3C(=O)COc3ccccc3)n2)c1 | 2.88 | 136 (≈ 324 µM) | 98300 | > 100000 | 2.61 | > 100000 | 53.7 | 340 |
| COc1ccc(Cl)cc1S(=O)(=O)N1COCc2ccc(C(=O)Nc3ccc(C(=O)O)cc3)cc21 | 2.16 | 60 (≈ 119 µM) | 3450 | 16600 | 0.32 | 38600 | 59.7 | 105 |
| COc1ccc(C)cc1S(=O)(=O)n1ccc2ccc(C(=O)Nc3ccc(CC(=O)O)cc3)cc21 | 2.82 | 226 (≈ 472 µM) | 83900 | > 100000 | 0.79 | 1540 | 203 | 118 |
| COc1ccc(Cl)cc1S(=O)(=O)N1CCNc2ccc(C(=O)Nc3ccc(C(=O)O)c(F)c3)cc21 | 0.23 | 58 (≈ 112 µM) | 41600 | > 100000 | 0.07 | 6420 | 112 | 162 |
| O=C(O)c1ccc(NC(=O)c2ccc3ccn(S(=O)(=O)c4cccc(Cl)c4)c3c2)cc1 | 0.6 | 1 (≈ 2.2 µM) | 2290 | 3280 | 2.99 | 26500 | 16.7 | 9.7 |
| CC(=O)c1ccc(-c2nc([C@H]3CCCCN3C(=O)COc3ccccc3)no2)cc1 | 1.54 | 6 (≈ 14.8 µM) | 4770 | > 100000 | 3.25 | > 100000 | 51.4 | 30.4 |
| O=C(COc1ccccc1)N1CCCC[C@@H]1c1noc(-c2cc(Cl)nnc2O)n1 | 6.21 | > 509 | 23000 | > 100000 | 1.84 | 72900 | 122 | 630 |
| O=C([C@H]1CCCCN1C(=O)COc1ccccc1)N1Cc2ccc(Cl)cc2C1 | 5.03 | 15 (≈ 37.6 µM) | 616 | 819 | 3.26 | > 100000 | 336 | 567 |
| O=C1Cc2ccc(-c3noc([C@H]4CCCCN4C(=O)COc4ccccc4)n3)cc2N1 | 1.46 | 13 (≈ 31.1 µM) | > 100000 | > 100000 | 2.63 | > 100000 | 95.9 | 102 |
| CCCN(c1cc(C(=O)Nc2ncc(CC(=O)O)s2)cc2c1OCO2)S(=O)(=O)c1cc(Cl)ccc1OC | 3.56 | 108 (≈ 190 µM) | > 100000 | > 100000 | 2.74 | 703 | 181 | 61.9 |
| COc1ccc(Cl)cc1CN1C(=O)C(C)(C)c2ccc(C(=O)Nc3nc(CC(=O)O)cs3)cc21 | 0.96 | 418 (≈ 836 µM) | > 100000 | > 100000 | 1.21 | 535 | 46.8 | 19.7 |
| COc1ccc(Cl)cc1S(=O)(=O)N1COc2c(C)cc(C(=O)Nc3nc(CC(=O)O)cs3)cc21 | 2.77 | 195 (≈ 372 µM) | 40900 | > 100000 | 0.58 | 844 | 80.1 | 65.4 |
| O=C(COc1ccccc1)N1CCCC[C@@H]1c1nc(-c2cccc(-n3cn[nH]c3=O)c2)no1 | 4.87 | 40 (≈ 89.6 µM) | 51500 | > 100000 | 2.42 | > 100000 | 96.3 | 456 |
